The molecules below were run against human PAD4 (hPAD4) (Homo sapiens, UniProt Q9UM07) (assay: RFMS human PAD4 functional assay (rapid-fire mass spectrum)). Conditions: 5 nM hPAD4 enzyme, 250 μM BAEE, 50 μM Calcium; 30 min preincubation, 90 min reaction at 37° C.
Format: biochemical
In short: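 PAD4 (10 nM) preincubated 30 min with compound (top final 50 μM), then BAEE substrate added in pH 7.5 HEPES buffer with DTT, 50 μM calcium, TPEN; 90 min at 37° C. After TCA quench, citrulline derivatized with phenyl glyoxal (4 mM final, 30 min, 37° C) and quantified by RapidFire MS against internal standard.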

human PAD4 (hPAD4), sequence (Q9UM07 whole entry): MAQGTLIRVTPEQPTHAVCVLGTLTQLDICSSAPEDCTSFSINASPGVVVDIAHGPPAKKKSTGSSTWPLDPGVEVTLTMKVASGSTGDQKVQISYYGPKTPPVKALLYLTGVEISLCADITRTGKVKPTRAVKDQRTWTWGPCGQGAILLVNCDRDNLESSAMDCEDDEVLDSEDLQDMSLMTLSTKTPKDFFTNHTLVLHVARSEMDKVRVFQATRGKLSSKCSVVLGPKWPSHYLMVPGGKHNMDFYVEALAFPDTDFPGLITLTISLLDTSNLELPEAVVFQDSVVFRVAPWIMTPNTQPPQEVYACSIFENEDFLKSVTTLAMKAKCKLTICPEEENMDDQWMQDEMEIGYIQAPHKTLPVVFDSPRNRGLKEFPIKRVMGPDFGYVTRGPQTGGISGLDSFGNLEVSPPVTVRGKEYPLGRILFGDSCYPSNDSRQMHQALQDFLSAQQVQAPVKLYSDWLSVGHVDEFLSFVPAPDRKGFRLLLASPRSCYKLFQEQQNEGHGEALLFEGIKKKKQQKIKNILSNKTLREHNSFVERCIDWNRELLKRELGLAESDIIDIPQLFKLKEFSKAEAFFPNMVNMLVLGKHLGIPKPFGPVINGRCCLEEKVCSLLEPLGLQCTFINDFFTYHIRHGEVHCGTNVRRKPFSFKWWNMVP

Row | SMILES | IC50 [nM]
1 | COc1cc(C(=O)N2C[C@H]3CC[C@@H]2[C@@H]3N)cc2nc(-c3csc4ccc(Cl)cc34)n(CC3CN(c4ccnc(C#N)n4)C3)c12 [Example 315, 4-[3-({5-[(1R,4R,7R)-7-amino-2-azabicyclo[2.2.1]heptane-2-carbonyl]-2-(5-chloro-1-benzothiophen-3-yl)-7-methoxy-1H-1,3-benzodiazol-1-yl}methyl)azetidin-1-yl]pyrimidine-2-carbonitrile] | 929
2 | COc1cc(C(=O)N2C[C@H]3CC[C@@H]2[C@@H]3N)cc2nc(-c3cc4ccccc4n3CC3CC3)n(CC3CN(C(=O)c4ccccc4C#N)C3)c12 [Example 159, 2-[3-({5-[(1R,4R,7R)-7-amino-2-azabicyclo[2.2.1]heptane-2-carbonyl]-2-[1-(cyclopropylmethyl)-1H-indol-2-yl]-7-methoxy-1H-1,3-benzodiazol-1-yl}methyl)azetidine-1-carbonyl]benzonitrile] | 24
3 | COc1cc(C(=O)N2C[C@H]3CC[C@@H]2[C@@H]3N)cc2nc(-c3cc4cccnc4n3CC3CC3)n(CC3CN(C(=O)c4ccnc(Cl)c4)C3)c12 [Example 107, (1R,4R,7R)-2-(1-{[1-(2-chloropyridine-4-carbonyl)azetidin-3-yl]methyl}-2-[1-(cyclopropylmethyl)-1H-pyrrolo[2,3-b]pyridin-2-yl]-7-methoxy-1H-1,3-benzodiazole-5-carbonyl)-2-azabicyclo[2.2.1]heptan-7-amine] | 33
4 | COc1cc(C(=O)N2CCC[C@@H](N)C2)cc2nc(-c3cc4ccccc4n3CC3CC3)n(Cc3cnn(C)c3)c12 [Example 267, (3R)-1-{2-[1-(cyclopropylmethyl)-1H-indol-2-yl]-7-methoxy-1-[(1-methyl-1H-pyrazol-4-yl)methyl]-1H-1,3-benzodiazole-5-carbonyl}piperidin-3-amine] | 98
5 | COc1cc(C(=O)N2CC3CCC2[C@@H]3N)cc2nc(-c3csc4ccc(Cl)cc34)n(CC3CN(C(=O)OCc4ccccc4)C3)c12 (stereo partly drawn) [Example 321, benzyl 3-({5-[(1R,4R,7R)-7-amino-2-azabicyclo[2.2.1]heptane-2-carbonyl]-2-(5-chloro-1-benzothiophen-3-yl)-7-methoxy-1H-1,3-benzodiazo1-1-yl}methyl)azetidine-l-carboxylate] | 1530
6 | COc1cc(C(=O)N2CC3CCC2[C@@H]3N)cc2nc(-c3cc4cccnc4n3CC3CC3)n(C3CCN(c4ccnc(C)n4)CC3)c12 (stereo partly drawn) [Example 238, (1R.,4R,7R)-2-{2-[1-(cyclopropylmethyl)-1H-pyrrolo[2,3-b]pyridin-2-yl]-7-methoxy-1-[1-(2-methylpyrimidin-4-yl)piperidin-4-yl]-1H-1,3-benzodiazole-5-carbonyl}-2-azabicyclo[2.2.1]heptan-7-amine] | 922
7 | COc1cc(C(=O)N2CC3CCC2[C@@H]3N)cc2nc(-c3cc4cccnc4n3CC3CC3)n(CC3CCN(c4ccnc(C)n4)CC3)c12 (some centres unmarked) [Example 219] | 67
8 | COc1ccc2cc(-c3nc4cc(C(=O)N5C[C@H]6CC[C@@H]5[C@@H]6N)cc(OC)c4n3CC3CN(c4cccnc4C#N)C3)n(CC3CC3)c2n1 [Example 35, 3-[3-({5-[(1R,4R,7R)-7-amino-2-azabicyclo[2.2.1]heptane-2-carbonyl]-2-[1-(cyclopropylmethyl)-6-methoxy-1H-pyrrolo[2,3-b]pyridin-2-yl]-7-methoxy-1H-1,3-benzodiazol-1-yl}methyl)azetidin-1-yl]pyridine-2-carbonitrile] | 90
9 | COC(=O)c1cc(C(=O)N2CC(Cn3c(-c4cc5cccnc5n4CC4CC4)nc4cc(C(=O)N5C[C@H]6CC[C@@H]5[C@@H]6N)cc(OC)c43)C2)ccn1 [Example 129, methyl 4-[3-({5-[(1R,4R,7R)-7-amino-2-azabicyclo[2.2.1]heptane-2-carbonyl]-2-[1-(cyclopropylmethyl)-1H-pyrrolo[2,3-b]pyridin-2-yl]-7-methoxy-1H-1,3-benzodiazol-1-yl}methyl)azetidine-1-carbonyl]pyridine-2-carboxylate] | 116

Next, values leading:

Row | IC50 [nM] | SMILES
10 | 31 | COc1cc(C(=O)N2CC3CCC2[C@@H]3N)cc2nc(-c3cc4ccccc4n3CC3CC3)n(CC3CN(C(=O)c4ccn(C)c(=O)c4)C3)c12 (stereo partly drawn) [Example 433, 4-[3-({5-[(7R)-7-amino-2-azabicyclo[2.2.1]heptane-2-carbonyl]-2-[1-(cyclopropylmethyl)-1H-indol-2-yl]-7-methoxy-1H-1,3-benzodiazol-1-yl}methyl)azetidine-1-carbonyl]-1-methyl-1,2-dihydropyridin-2-one]
11 | 391 | COc1cc(C(=O)N2CC3CCC2[C@@H]3N)cc2nc(-c3cc4ccccc4n3C)n(Cc3cnn(C)c3)c12 (stereo partly drawn) [Example 513, (7R)-2-[7-methoxy-2-(1-methyl-1H-indol-2-yl)-1-[(1-methyl-1H-pyrazol-4-yl)methyl]-1H-1,3-benzodiazole-5-carbonyl]-2-azabicyclo[2.2.1]heptan-7-amine]
12 | 158 | COc1cc(C(=O)N2C[C@H](N)C[C@@H](F)C2)cc2nc(-c3cc4cccnc4n3CC3CC3)n(Cc3cnn(C)c3C)c12 [Example 504, (3R,5R)-1-{2-[1-(cyclopropylmethyl)-1H-pyrrolo[2,3-b]pyridin-2-yl]-l-[(1,5-dimethyl-1H-pyrazol-4-yl)methyl]-7-methoxy-1H-1,3-benzodiazole-5-carbonyl}-5-fluoropiperidin-3-amine]
13 | 67 | COc1cc(C(=O)N2C[C@H](N)C[C@@H](F)C2)cc2nc(-c3cc4ccccc4n3CC3CC3)n(CC3(C)CN(C(=O)c4ccccc4)C3)c12 [Example 460, (3R,5R)-1-{1-[(1-benzoyl-3-methylazetidin-3-yl)methyl]-2-[1-(cyclopropylmethyl)-1H-indol-2-yl]-7-methoxy-1H-1,3-benzodiazole-5-carbonyl}-5-fluoropiperidin-3-amine]
14 | 86 | COc1cc(C(=O)N2CC3CCC2[C@@H]3N)cc2nc(-c3cc4cccnc4n3CC3CC3)n(Cc3cc(C)nn3C)c12 (stereo partly drawn) [Example 494, (7R)-2-{2-[1-(cyclopropylmethyl)-1H-pyrrolo[2,3-b]pyridin-2-yl]-1-[(1,3-dimethyl-1H-pyrazol-5-yl)methyl]-7-methoxy-1H-1,3-benzodiazole-5-carbonyl}-2-azabicyclo[2.2.1]heptan-7-amine]
15 | 300 | COc1cc(C(=O)N2CC3CCC2[C@@H]3N)cc2nc(-c3cc4cccnc4n3CC3CC3)n(Cc3nc[nH]n3)c12 (stereo partly drawn) [Example 509, (7R)-2-{2-[1-(cyclopropylmethyl)-1H-pyrrolo[2,3-b]pyridin-2-yl]-7-methoxy-1-[(1H-l,2,4-triazol-3-yl)methyl]-1H-1,3-benzodiazole-5-carbonyl}-2-azabicyclo[2.2.1]heptan-7-amine]
16 | 37 | COc1cc(C(=O)N2CC3CCC2[C@@H]3N)cc2nc(-c3cc4ccccc4n3CC3CC3)n(Cc3cnn(-c4cc(F)cnc4O)c3)c12 (stereo partly drawn) [Example 376, 3-[4-({5-[(7R)-7-amino-2-azabicyclo[2.2.1]heptane-2-carbonyl]-2-[1-(cyclopropylmethyl)-1H-indol-2-yl]-7-methoxy-1H-1,3-benzodiazol-1-yl}methyl)-1H-pyrazol-1-yl]-5-fluoropyridin-2-ol]
17 | 41 | COc1cc(C(=O)N2CC3CCC2[C@@H]3N)cc2nc(-c3cc4cccnc4n3CC3CC3)n(Cc3cnn(-c4cncc(Cl)c4)c3)c12 (stereo partly drawn) [Example 383, (7R)-2-(1-{[1-(5-chloropyridin-3-yl)-1H-pyrazol-4-yl]methyl}-2-[1-(cyclopropylmethyl)-1H-pyrrolo[2,3-b]pyridin-2-yl]-7-methoxy-1H-1,3-benzodiazole-5-carbonyl)-2-azabicyclo[2.2.1]heptan-7-amine]
